# Measurements taken from patent publication US20070270418A1, “Inhibitors of P38 and Methods of Using the Same” (priority 2003, published 2007).
# Target: T1, CaMKIV (Homo sapiens, UniProt Q16566)
# T1 construct: purchased Upstate (Charlottesville, Va.)
# T1 sequence (Q16566 1-473): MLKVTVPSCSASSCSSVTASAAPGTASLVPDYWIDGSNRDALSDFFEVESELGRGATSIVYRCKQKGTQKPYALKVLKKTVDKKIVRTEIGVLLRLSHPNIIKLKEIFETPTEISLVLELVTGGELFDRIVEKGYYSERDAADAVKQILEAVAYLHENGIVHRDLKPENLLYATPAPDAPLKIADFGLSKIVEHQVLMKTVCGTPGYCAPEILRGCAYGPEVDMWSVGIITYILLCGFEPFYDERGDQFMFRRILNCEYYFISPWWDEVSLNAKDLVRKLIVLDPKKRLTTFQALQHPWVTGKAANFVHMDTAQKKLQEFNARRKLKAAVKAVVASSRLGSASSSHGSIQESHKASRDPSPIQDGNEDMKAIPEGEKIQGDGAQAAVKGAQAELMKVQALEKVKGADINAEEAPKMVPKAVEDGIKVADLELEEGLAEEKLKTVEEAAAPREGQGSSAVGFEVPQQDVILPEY
# Assay: Broad selectivity panel, 32P incorporation
# Type: biochemical
# Conditions: 0.1 μM compound, 40 μM ATP; read-out: Percent inhibition CaMKIV
# Experimental: (§1) Various compounds of the present invention are screened against a panel of 24 additional kinases (Upstate, Charlottesville, Va.). Compounds are tested 0.1 μM and 1 μM in reactions containing 40 μM ATP. Incorporation of radiolabeled phosphate (^32P) into each kinase substrate is measured in the presence and absence of test compound. Results are reported as the percent decrease in the amount of ^32P incorporated into the substrate in the presence of compound, compared to buffer control.
row,SMILES,inhibition at 0.1 µM [%]
1,Fc1ccc(-c2nc3occn3c2-c2ccnc(N[C@@H]3CN4CCC3CC4)n2)cc1 [LXXI],5
2,Fc1ccc(-c2nc3occn3c2-c2ccnc(N[C@H]3CN4CCC3CC4)n2)cc1 [LXXXVII],-12

# Same assay, conditions: 1 μM compound, 40 μM ATP; read-out: Percent inhibition CaMKIV
row,SMILES,inhibition at 1 µM [%]
1,Fc1ccc(-c2nc3occn3c2-c2ccnc(N[C@@H]3CN4CCC3CC4)n2)cc1 [LXXI],6
2,Fc1ccc(-c2nc3occn3c2-c2ccnc(N[C@H]3CN4CCC3CC4)n2)cc1 [LXXXVII],10

# Target: T2, FGFR3 (Homo sapiens, UniProt P22607)
# T2 construct: purchased Upstate (Charlottesville, Va.)
# T2 sequence (P22607 23-806, species assumed): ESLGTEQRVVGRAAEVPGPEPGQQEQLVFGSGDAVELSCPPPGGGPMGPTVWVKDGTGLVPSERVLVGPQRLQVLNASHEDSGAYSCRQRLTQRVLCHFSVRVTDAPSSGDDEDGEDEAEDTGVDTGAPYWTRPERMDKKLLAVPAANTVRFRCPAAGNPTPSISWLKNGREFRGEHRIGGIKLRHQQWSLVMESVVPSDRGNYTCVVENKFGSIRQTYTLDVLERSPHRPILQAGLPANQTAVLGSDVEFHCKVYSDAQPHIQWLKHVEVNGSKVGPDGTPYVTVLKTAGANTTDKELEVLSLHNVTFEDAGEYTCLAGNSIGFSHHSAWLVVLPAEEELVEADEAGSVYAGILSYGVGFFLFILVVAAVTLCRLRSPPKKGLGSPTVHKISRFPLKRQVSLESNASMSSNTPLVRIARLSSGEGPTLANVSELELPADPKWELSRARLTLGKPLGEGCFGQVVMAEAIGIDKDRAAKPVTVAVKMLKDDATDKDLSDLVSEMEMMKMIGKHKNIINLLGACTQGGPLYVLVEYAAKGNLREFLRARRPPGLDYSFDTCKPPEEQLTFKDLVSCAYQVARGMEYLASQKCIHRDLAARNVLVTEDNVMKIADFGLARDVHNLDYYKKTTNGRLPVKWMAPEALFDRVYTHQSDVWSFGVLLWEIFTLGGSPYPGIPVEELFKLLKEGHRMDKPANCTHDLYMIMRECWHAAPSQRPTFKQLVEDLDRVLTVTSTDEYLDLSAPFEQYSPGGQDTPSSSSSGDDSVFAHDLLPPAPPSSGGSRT
# Assay: Broad selectivity panel, 32P incorporation
# Type: biochemical
# Conditions: 0.1 μM compound, 40 μM ATP; read-out: Percent inhibition FGFR3
# Experimental: as §1
row,SMILES,inhibition at 0.1 µM [%]
1,Fc1ccc(-c2nc3occn3c2-c2ccnc(N[C@@H]3CN4CCC3CC4)n2)cc1 [LXXI],-1
2,Fc1ccc(-c2nc3occn3c2-c2ccnc(N[C@H]3CN4CCC3CC4)n2)cc1 [LXXXVII],-23

# Same assay, conditions: 1 μM compound, 40 μM ATP; read-out: Percent inhibition FGFR3
row,SMILES,inhibition at 1 µM [%]
1,Fc1ccc(-c2nc3occn3c2-c2ccnc(N[C@@H]3CN4CCC3CC4)n2)cc1 [LXXI],16
2,Fc1ccc(-c2nc3occn3c2-c2ccnc(N[C@H]3CN4CCC3CC4)n2)cc1 [LXXXVII],-21

# Target: T3, JNK3-His (Homo sapiens, UniProt P53779)
# T3 construct: His; purchased Upstate (Charlottesville, Va.)
# T3 sequence (P53779 whole entry): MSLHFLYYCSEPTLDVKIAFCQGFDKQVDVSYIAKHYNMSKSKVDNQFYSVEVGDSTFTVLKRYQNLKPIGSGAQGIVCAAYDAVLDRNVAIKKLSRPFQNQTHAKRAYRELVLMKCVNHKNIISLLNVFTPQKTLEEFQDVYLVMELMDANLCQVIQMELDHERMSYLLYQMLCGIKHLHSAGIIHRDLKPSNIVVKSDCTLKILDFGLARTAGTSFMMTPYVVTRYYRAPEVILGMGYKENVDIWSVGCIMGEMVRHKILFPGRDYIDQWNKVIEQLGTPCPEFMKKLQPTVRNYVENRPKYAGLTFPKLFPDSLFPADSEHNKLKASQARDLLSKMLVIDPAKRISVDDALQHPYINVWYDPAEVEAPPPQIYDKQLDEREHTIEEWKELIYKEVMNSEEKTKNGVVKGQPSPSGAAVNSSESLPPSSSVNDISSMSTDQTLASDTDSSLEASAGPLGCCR
# Assay: Broad selectivity panel, 32P incorporation
# Type: biochemical
# Conditions: 0.1 μM compound, 40 μM ATP; read-out: Percent inhibition JNK3-His
# Experimental: as §1
row,SMILES,inhibition at 0.1 µM [%]
1,Fc1ccc(-c2nc3occn3c2-c2ccnc(N[C@@H]3CN4CCC3CC4)n2)cc1 [LXXI],-7
2,Fc1ccc(-c2nc3occn3c2-c2ccnc(N[C@H]3CN4CCC3CC4)n2)cc1 [LXXXVII],19

# Same assay, conditions: 1 μM compound, 40 μM ATP; read-out: Percent inhibition JNK3-His
row,SMILES,inhibition at 1 µM [%]
1,Fc1ccc(-c2nc3occn3c2-c2ccnc(N[C@@H]3CN4CCC3CC4)n2)cc1 [LXXI],59
2,Fc1ccc(-c2nc3occn3c2-c2ccnc(N[C@H]3CN4CCC3CC4)n2)cc1 [LXXXVII],61

# Target: T4, Lyn (Homo sapiens, UniProt P07948)
# T4 construct: purchased Upstate (Charlottesville, Va.)
# T4 sequence (P07948 whole entry, species assumed): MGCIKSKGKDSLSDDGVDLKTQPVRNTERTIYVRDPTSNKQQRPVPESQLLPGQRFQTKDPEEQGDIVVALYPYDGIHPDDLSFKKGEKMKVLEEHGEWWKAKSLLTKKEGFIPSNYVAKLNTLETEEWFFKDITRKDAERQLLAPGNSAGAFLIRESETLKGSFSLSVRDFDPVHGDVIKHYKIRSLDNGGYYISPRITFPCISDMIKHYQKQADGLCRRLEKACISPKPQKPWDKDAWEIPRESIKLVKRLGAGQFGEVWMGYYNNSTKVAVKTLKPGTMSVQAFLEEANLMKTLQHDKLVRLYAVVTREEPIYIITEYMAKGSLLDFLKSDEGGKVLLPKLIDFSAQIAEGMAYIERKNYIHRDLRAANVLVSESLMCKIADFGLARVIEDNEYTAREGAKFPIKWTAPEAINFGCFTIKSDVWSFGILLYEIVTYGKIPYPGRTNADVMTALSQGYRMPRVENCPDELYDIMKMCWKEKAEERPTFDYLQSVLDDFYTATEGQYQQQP
# Assay: Broad selectivity panel, 32P incorporation
# Type: biochemical
# Conditions: 0.1 μM compound, 40 μM ATP; read-out: Percent inhibition Lyn
# Experimental: as §1
row,SMILES,inhibition at 0.1 µM [%]
1,Fc1ccc(-c2nc3occn3c2-c2ccnc(N[C@@H]3CN4CCC3CC4)n2)cc1 [LXXI],4
2,Fc1ccc(-c2nc3occn3c2-c2ccnc(N[C@H]3CN4CCC3CC4)n2)cc1 [LXXXVII],-32

# Same assay, conditions: 1 μM compound, 40 μM ATP; read-out: Percent inhibition Lyn
row,SMILES,inhibition at 1 µM [%]
1,Fc1ccc(-c2nc3occn3c2-c2ccnc(N[C@@H]3CN4CCC3CC4)n2)cc1 [LXXI],10
2,Fc1ccc(-c2nc3occn3c2-c2ccnc(N[C@H]3CN4CCC3CC4)n2)cc1 [LXXXVII],-13

# Target: T5, MAPK1 (Homo sapiens, UniProt P27361)
# T5 construct: purchased Upstate (Charlottesville, Va.)
# T5 sequence (P27361 whole entry): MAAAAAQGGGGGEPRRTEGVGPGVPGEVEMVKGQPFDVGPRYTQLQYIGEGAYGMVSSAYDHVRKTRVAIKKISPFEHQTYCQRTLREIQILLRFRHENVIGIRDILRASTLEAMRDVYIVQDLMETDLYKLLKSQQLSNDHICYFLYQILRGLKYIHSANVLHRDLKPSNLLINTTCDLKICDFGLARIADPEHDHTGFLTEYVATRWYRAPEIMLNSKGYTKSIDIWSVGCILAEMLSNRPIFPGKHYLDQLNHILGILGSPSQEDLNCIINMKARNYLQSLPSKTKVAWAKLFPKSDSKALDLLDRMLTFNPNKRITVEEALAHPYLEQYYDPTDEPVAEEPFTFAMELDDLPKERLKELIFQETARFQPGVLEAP
# Assay: Broad selectivity panel, 32P incorporation
# Type: biochemical
# Conditions: 0.1 μM compound, 40 μM ATP; read-out: Percent inhibition MAPK1
# Experimental: as §1
row,SMILES,inhibition at 0.1 µM [%]
1,Fc1ccc(-c2nc3occn3c2-c2ccnc(N[C@@H]3CN4CCC3CC4)n2)cc1 [LXXI],27
2,Fc1ccc(-c2nc3occn3c2-c2ccnc(N[C@H]3CN4CCC3CC4)n2)cc1 [LXXXVII],12

# Same assay, conditions: 1 μM compound, 40 μM ATP; read-out: Percent inhibition MAPK1
row,SMILES,inhibition at 1 µM [%]
1,Fc1ccc(-c2nc3occn3c2-c2ccnc(N[C@@H]3CN4CCC3CC4)n2)cc1 [LXXI],56
2,Fc1ccc(-c2nc3occn3c2-c2ccnc(N[C@H]3CN4CCC3CC4)n2)cc1 [LXXXVII],27

# Target: T6, PKB α (Homo sapiens, UniProt P31749)
# T6 construct: purchased Upstate (Charlottesville, Va.)
# T6 sequence (P31749 whole entry, species assumed): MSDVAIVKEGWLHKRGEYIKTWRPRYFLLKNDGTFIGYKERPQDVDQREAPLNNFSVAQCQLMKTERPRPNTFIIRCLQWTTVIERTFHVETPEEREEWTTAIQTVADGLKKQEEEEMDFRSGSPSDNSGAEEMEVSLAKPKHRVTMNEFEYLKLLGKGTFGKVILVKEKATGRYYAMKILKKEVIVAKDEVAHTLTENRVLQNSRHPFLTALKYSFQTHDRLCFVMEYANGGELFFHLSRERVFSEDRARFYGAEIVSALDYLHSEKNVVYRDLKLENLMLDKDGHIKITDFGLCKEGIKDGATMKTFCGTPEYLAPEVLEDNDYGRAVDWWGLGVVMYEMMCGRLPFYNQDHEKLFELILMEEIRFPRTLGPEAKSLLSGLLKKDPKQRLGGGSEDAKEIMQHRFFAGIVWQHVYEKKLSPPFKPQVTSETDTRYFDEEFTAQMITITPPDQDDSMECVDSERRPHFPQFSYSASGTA
# Assay: Broad selectivity panel, 32P incorporation
# Type: biochemical
# Conditions: 0.1 μM compound, 40 μM ATP; read-out: Percent inhibition PKB α
# Experimental: as §1
row,SMILES,inhibition at 0.1 µM [%]
1,Fc1ccc(-c2nc3occn3c2-c2ccnc(N[C@@H]3CN4CCC3CC4)n2)cc1 [LXXI],-5
2,Fc1ccc(-c2nc3occn3c2-c2ccnc(N[C@H]3CN4CCC3CC4)n2)cc1 [LXXXVII],-2

# Same assay, conditions: 1 μM compound, 40 μM ATP; read-out: Percent inhibition PKB α
row,SMILES,inhibition at 1 µM [%]
1,Fc1ccc(-c2nc3occn3c2-c2ccnc(N[C@@H]3CN4CCC3CC4)n2)cc1 [LXXI],9
2,Fc1ccc(-c2nc3occn3c2-c2ccnc(N[C@H]3CN4CCC3CC4)n2)cc1 [LXXXVII],5

# Target: T7, PKBβ (Homo sapiens, UniProt P31751)
# T7 construct: purchased Upstate (Charlottesville, Va.)
# T7 sequence (P31751 whole entry, species assumed): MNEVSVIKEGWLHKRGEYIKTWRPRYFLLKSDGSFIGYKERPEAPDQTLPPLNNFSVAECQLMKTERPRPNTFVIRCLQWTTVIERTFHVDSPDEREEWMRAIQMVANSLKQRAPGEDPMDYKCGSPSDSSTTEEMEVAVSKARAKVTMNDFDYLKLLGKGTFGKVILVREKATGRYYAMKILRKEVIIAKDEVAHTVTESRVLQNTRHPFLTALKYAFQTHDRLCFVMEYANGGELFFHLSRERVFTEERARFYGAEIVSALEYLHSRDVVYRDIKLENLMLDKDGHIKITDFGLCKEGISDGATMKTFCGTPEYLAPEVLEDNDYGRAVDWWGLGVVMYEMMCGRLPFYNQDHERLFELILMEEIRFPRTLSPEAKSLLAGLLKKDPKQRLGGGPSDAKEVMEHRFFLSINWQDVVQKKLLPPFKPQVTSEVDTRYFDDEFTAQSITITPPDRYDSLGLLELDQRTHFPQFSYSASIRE
# Assay: Broad selectivity panel, 32P incorporation
# Type: biochemical
# Conditions: 0.1 μM compound, 40 μM ATP; read-out: Percent inhibition PKBβ
# Experimental: as §1
row,SMILES,inhibition at 0.1 µM [%]
1,Fc1ccc(-c2nc3occn3c2-c2ccnc(N[C@@H]3CN4CCC3CC4)n2)cc1 [LXXI],-42
2,Fc1ccc(-c2nc3occn3c2-c2ccnc(N[C@H]3CN4CCC3CC4)n2)cc1 [LXXXVII],-26

# Same assay, conditions: 1 μM compound, 40 μM ATP; read-out: Percent inhibition PKBβ
row,SMILES,inhibition at 1 µM [%]
1,Fc1ccc(-c2nc3occn3c2-c2ccnc(N[C@@H]3CN4CCC3CC4)n2)cc1 [LXXI],-5
2,Fc1ccc(-c2nc3occn3c2-c2ccnc(N[C@H]3CN4CCC3CC4)n2)cc1 [LXXXVII],-29

# Test system: ROCK-II
# Assay: Broad selectivity panel, 32P incorporation
# Type: biochemical
# Conditions: 0.1 μM compound, 40 μM ATP
# Experimental: as §1
row,SMILES,Percent inhibition ROCK-II
1,Fc1ccc(-c2nc3occn3c2-c2ccnc(N[C@@H]3CN4CCC3CC4)n2)cc1 [LXXI],−7
2,Fc1ccc(-c2nc3occn3c2-c2ccnc(N[C@H]3CN4CCC3CC4)n2)cc1 [LXXXVII],2

# Same assay, conditions: 1 μM compound, 40 μM ATP
row,SMILES,Percent inhibition ROCK-II
1,Fc1ccc(-c2nc3occn3c2-c2ccnc(N[C@@H]3CN4CCC3CC4)n2)cc1 [LXXI],10
2,Fc1ccc(-c2nc3occn3c2-c2ccnc(N[C@H]3CN4CCC3CC4)n2)cc1 [LXXXVII],8

# Target: T8, ZAP-70 (Homo sapiens, UniProt P43403)
# T8 construct: purchased Upstate (Charlottesville, Va.)
# T8 sequence (P43403 1-619): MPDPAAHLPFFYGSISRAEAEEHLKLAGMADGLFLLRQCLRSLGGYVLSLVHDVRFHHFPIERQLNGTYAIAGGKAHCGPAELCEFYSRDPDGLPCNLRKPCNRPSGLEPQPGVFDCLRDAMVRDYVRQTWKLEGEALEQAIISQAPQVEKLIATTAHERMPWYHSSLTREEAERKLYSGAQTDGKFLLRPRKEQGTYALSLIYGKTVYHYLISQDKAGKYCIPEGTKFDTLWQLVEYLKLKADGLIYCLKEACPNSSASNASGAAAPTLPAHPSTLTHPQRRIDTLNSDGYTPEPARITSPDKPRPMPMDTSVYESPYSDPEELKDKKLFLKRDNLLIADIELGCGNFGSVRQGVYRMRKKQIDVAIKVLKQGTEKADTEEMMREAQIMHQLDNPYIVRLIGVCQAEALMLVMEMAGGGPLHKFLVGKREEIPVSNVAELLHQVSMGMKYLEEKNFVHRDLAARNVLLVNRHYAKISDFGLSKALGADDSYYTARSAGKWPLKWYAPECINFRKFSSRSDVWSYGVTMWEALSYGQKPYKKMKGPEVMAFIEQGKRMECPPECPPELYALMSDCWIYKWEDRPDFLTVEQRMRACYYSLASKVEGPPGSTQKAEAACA
# Assay: Broad selectivity panel, 32P incorporation
# Type: biochemical
# Conditions: 0.1 μM compound, 40 μM ATP; read-out: Percent inhibition ZAP-70
# Experimental: as §1
row,SMILES,inhibition at 0.1 µM [%]
1,Fc1ccc(-c2nc3occn3c2-c2ccnc(N[C@@H]3CN4CCC3CC4)n2)cc1 [LXXI],-17
2,Fc1ccc(-c2nc3occn3c2-c2ccnc(N[C@H]3CN4CCC3CC4)n2)cc1 [LXXXVII],-51

# Same assay, conditions: 1 μM compound, 40 μM ATP; read-out: Percent inhibition ZAP-70
row,SMILES,inhibition at 1 µM [%]
1,Fc1ccc(-c2nc3occn3c2-c2ccnc(N[C@@H]3CN4CCC3CC4)n2)cc1 [LXXI],4
2,Fc1ccc(-c2nc3occn3c2-c2ccnc(N[C@H]3CN4CCC3CC4)n2)cc1 [LXXXVII],-14

# Target: T9, c-RAF (Homo sapiens, UniProt P04049)
# T9 construct: purchased Upstate (Charlottesville, Va.)
# T9 sequence (P04049 whole entry, species assumed): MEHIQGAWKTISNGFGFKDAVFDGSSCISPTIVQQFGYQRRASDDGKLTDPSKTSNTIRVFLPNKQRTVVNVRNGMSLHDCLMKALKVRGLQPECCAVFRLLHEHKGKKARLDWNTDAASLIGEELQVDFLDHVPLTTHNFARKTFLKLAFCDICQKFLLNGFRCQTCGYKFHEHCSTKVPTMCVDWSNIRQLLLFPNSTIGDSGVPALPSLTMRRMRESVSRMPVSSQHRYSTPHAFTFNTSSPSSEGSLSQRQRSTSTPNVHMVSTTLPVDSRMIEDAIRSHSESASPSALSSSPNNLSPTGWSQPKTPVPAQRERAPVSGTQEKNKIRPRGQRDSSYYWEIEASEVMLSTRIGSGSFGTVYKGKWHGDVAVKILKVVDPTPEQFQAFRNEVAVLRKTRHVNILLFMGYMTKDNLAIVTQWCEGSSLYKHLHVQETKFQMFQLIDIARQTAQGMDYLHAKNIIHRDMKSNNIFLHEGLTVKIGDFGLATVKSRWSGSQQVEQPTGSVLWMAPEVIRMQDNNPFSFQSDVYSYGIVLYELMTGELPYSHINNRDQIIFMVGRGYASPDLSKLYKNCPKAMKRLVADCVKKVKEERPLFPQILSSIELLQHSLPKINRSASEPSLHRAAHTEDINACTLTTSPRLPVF
# Assay: Broad selectivity panel, 32P incorporation
# Type: biochemical
# Conditions: 0.1 μM compound, 40 μM ATP; read-out: Percent inhibition c-RAF
# Experimental: as §1
row,SMILES,inhibition at 0.1 µM [%]
1,Fc1ccc(-c2nc3occn3c2-c2ccnc(N[C@@H]3CN4CCC3CC4)n2)cc1 [LXXI],7
2,Fc1ccc(-c2nc3occn3c2-c2ccnc(N[C@H]3CN4CCC3CC4)n2)cc1 [LXXXVII],15

# Same assay, conditions: 1 μM compound, 40 μM ATP; read-out: Percent inhibition c-RAF
row,SMILES,inhibition at 1 µM [%]
1,Fc1ccc(-c2nc3occn3c2-c2ccnc(N[C@@H]3CN4CCC3CC4)n2)cc1 [LXXI],42
2,Fc1ccc(-c2nc3occn3c2-c2ccnc(N[C@H]3CN4CCC3CC4)n2)cc1 [LXXXVII],58

# Test system: p70S6K
# Assay: Broad selectivity panel, 32P incorporation
# Type: biochemical
# Conditions: 0.1 μM compound, 40 μM ATP
# Experimental: as §1
row,SMILES,Percent inhibition p70S6K
1,Fc1ccc(-c2nc3occn3c2-c2ccnc(N[C@@H]3CN4CCC3CC4)n2)cc1 [LXXI],−10
2,Fc1ccc(-c2nc3occn3c2-c2ccnc(N[C@H]3CN4CCC3CC4)n2)cc1 [LXXXVII],−4

# Same assay, conditions: 1 μM compound, 40 μM ATP
row,SMILES,Percent inhibition p70S6K
1,Fc1ccc(-c2nc3occn3c2-c2ccnc(N[C@@H]3CN4CCC3CC4)n2)cc1 [LXXI],6
2,Fc1ccc(-c2nc3occn3c2-c2ccnc(N[C@H]3CN4CCC3CC4)n2)cc1 [LXXXVII],−1
